Test results as given in ChEMBL document CHEMBL1201862, “PubChem BioAssay data set” (2004).
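Test compounds were applied to cells in 96-well plates for 48 hours at 5 doses. Abbreviation: GI50, concentration required for 50% inhibition of growth.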 Activity calls are given as the source filed them. Cut-off read from the data, not from the text of the source: active = GI50 up to about 1.1 µM and inactive = higher. *1 amine or outer side, *2 acyl side, *3 side chain or, on linkers, in order; H or OH if unused. Where a SMILES comes first, the peptide text is derived from it. [ ]: non-standard residue; d: D form. The star is where a group is joined. ξ: configuration not given here. X26 = O=C([C@H]1CCC[C@H]1N[*:1])[*:2]; ξW = NC(Cc1c[nH]c2ccccc12)C(=O)O; ξF = NC(Cc1ccccc1)C(=O)O; Boc = CC(C)(C)OC(=O)*; ξK = NCCCCC(N)C(=O)O; ξT = CC(O)C(N)C(=O)O; tBu = CC(C)(C)*

What was measured:
Experiment in all cases: inhibition of tumour cell growth, NCI panel, 48 h
786-0 = test system: 786-0
M14 = test system: M14
Malme-3M = test system: Malme-3M
OVCAR-5 = test system: OVCAR-5
OVCAR-8 = test system: OVCAR-8
SF-295 = test system: SF-295
SF-539 = test system: SF-539
SK-MEL-2 = test system: SK-MEL-2
SN12C = test system: SN12C
SR = test system: SR
TK-10 = test system: TK-10
UACC-62 = test system: UACC-62
CCRF-CEM = test system: CCRF-CEM
EKVX = test system: EKVX
RXF 393 = test system: RXF 393
DU-145 = test system: DU-145
MDA-MB-435 = test system: MDA-MB-435
NCI/ADR-RES = test system: NCI/ADR-RES
BT-549 = test system: BT-549

Measured: GI50

O=C(CCC(=O)Nc1cccc(Cl)c1)CC(=O)c1ccc(Cl)cc1
inactive: 786-0 > 100 µM | M14 > 100 µM | Malme-3M > 100 µM | OVCAR-5 > 100 µM | OVCAR-8 > 100 µM | SF-295 > 100 µM | SF-539 > 100 µM | SK-MEL-2 > 100 µM | SN12C > 100 µM | SR > 100 µM | TK-10 > 100 µM | UACC-62 > 100 µM

COc1cc(Br)c(CC2NCCc3cc(OC)c(OC)cc32)cc1OC (stereo unspecified)
inactive: 786-0 93.5 µM | CCRF-CEM > 100 µM | EKVX > 100 µM | M14 44.7 µM | Malme-3M 58.5 µM | OVCAR-5 40.9 µM | OVCAR-8 86.1 µM | SF-295 12 µM | SK-MEL-2 > 100 µM | SN12C 94.4 µM | SR 50.9 µM | TK-10 83.4 µM | UACC-62 77.4 µM

O=C(N/N=C/c1cc(Cl)cc(Cl)c1O)c1ccncc1
inactive: 786-0 57.9 µM | CCRF-CEM 31.2 µM | EKVX 22 µM | M14 > 100 µM | Malme-3M > 100 µM | OVCAR-5 39.1 µM | OVCAR-8 70.6 µM | RXF 393 > 100 µM | SF-295 60.1 µM | SF-539 68.5 µM | SN12C > 100 µM | SR 39.1 µM | TK-10 > 100 µM | UACC-62 63 µM

O=C(/C=C(\Nc1ccccc1O)c1ccccc1)C(=O)NC12CC3CC(CC(C3)C1)C2
inactive: 786-0 > 10 µM | CCRF-CEM 4.33 µM | DU-145 > 10 µM | EKVX > 10 µM | M14 > 10 µM | MDA-MB-435 > 10 µM | Malme-3M > 10 µM | NCI/ADR-RES > 10 µM | OVCAR-5 8.45 µM | OVCAR-8 > 10 µM | RXF 393 > 10 µM | SF-295 > 10 µM | SF-539 8.93 µM | SK-MEL-2 > 10 µM | SN12C > 10 µM | SR 5.33 µM | TK-10 > 10 µM

CC(=O)Oc1ccn2nc(C)c(Cc3c(C)nn4ccc(OC(C)=O)cc34)c2c1
inactive: 786-0 > 100 µM | CCRF-CEM 27.9 µM | DU-145 > 100 µM | EKVX > 100 µM | M14 > 100 µM | MDA-MB-435 25.1 µM | Malme-3M > 100 µM | NCI/ADR-RES > 100 µM | OVCAR-5 > 100 µM | OVCAR-8 > 100 µM | SF-295 23 µM | SF-539 51.4 µM | SK-MEL-2 34.6 µM | SN12C > 100 µM | SR > 100 µM | TK-10 > 100 µM | UACC-62 98.2 µM

CC(OC(C)(C)C)C1NC(=O)C(CCCCNC(=O)OC(C)(C)C)NC(=O)C(Cc2c[nH]c3ccccc23)NC(=O)C(Cc2ccccc2)NC(=O)[C@H]2CCC[C@H]2NC(=O)C(Cc2ccccc2)NC1=O (stereo partly specified) (cyclo([X26][ξF][ξW][ξK](Boc)[ξT](tBu)[ξF]))
inactive: 786-0 > 100 µM | CCRF-CEM 9.06 µM | DU-145 93.8 µM | EKVX > 100 µM | M14 28.3 µM | MDA-MB-435 29.9 µM | Malme-3M > 100 µM | NCI/ADR-RES > 100 µM | OVCAR-5 17.9 µM | OVCAR-8 18.2 µM | RXF 393 > 100 µM | SF-295 9.79 µM | SF-539 75.9 µM | SK-MEL-2 26.1 µM | SN12C 17.2 µM | SR 72.3 µM | UACC-62 28.5 µM

Oc1ccc(N=C2CCC(=C(c3ccccc3)c3ccc(Nc4ccc(O)cc4)cc3)CC2)cc1
inactive: 786-0 78.7 µM | CCRF-CEM 88.9 µM | DU-145 60.8 µM | M14 > 100 µM | MDA-MB-435 34.5 µM | NCI/ADR-RES 80.9 µM | OVCAR-5 > 100 µM | OVCAR-8 48.5 µM | RXF 393 58.6 µM | SF-295 > 100 µM | SF-539 46.1 µM | SK-MEL-2 77.6 µM | SN12C 54.6 µM | SR 19.7 µM | TK-10 > 100 µM | UACC-62 55.8 µM

CN(CC(=O)O)Cc1oc(CO)cc(=O)c1O
inactive: 786-0 > 100 µM | BT-549 > 100 µM | CCRF-CEM > 100 µM | EKVX > 100 µM | M14 > 100 µM | MDA-MB-435 > 100 µM | Malme-3M > 100 µM | NCI/ADR-RES > 100 µM | OVCAR-5 > 100 µM | OVCAR-8 > 100 µM | RXF 393 > 100 µM | SF-295 > 100 µM | SF-539 > 100 µM | SK-MEL-2 > 100 µM | SN12C > 100 µM | SR > 100 µM | TK-10 > 100 µM | UACC-62 > 100 µM

COc1ccc(N/N=C/C2=CC(C)(C)C(C#N)(C#N)C(O)=C2C#N)cc1
inactive: 786-0 38.5 µM | CCRF-CEM 35.5 µM | DU-145 77.8 µM | EKVX 66.5 µM | M14 54.2 µM | MDA-MB-435 65.3 µM | Malme-3M 29.4 µM | NCI/ADR-RES 37 µM | OVCAR-5 69.8 µM | OVCAR-8 28.7 µM | RXF 393 36.6 µM | SF-295 36.6 µM | SF-539 26.1 µM | SK-MEL-2 49.2 µM | SN12C 47.4 µM | SR 11.5 µM | TK-10 > 100 µM | UACC-62 62.2 µM

C=CC[C@H]1O[Si](C(C)(C)C)(C(C)(C)C)[C@H](C)[C@H]1C
inactive: 786-0 > 100 µM | BT-549 > 100 µM | CCRF-CEM > 100 µM | EKVX > 100 µM | M14 > 100 µM | MDA-MB-435 > 100 µM | Malme-3M 20.3 µM | NCI/ADR-RES > 100 µM | OVCAR-5 > 100 µM | OVCAR-8 > 100 µM | SF-295 > 100 µM | SF-539 > 100 µM | SK-MEL-2 > 100 µM | SN12C > 100 µM | SR 59.6 µM | TK-10 > 100 µM | UACC-62 > 100 µM

Cc1ccc(-c2c(C#N)c(O)n(NS(=O)(=O)c3ccccc3)c(=O)c2C#N)cc1
inactive: 786-0 > 100 µM | BT-549 > 100 µM | CCRF-CEM > 100 µM | EKVX > 100 µM | M14 > 100 µM | MDA-MB-435 > 100 µM | Malme-3M > 100 µM | NCI/ADR-RES > 100 µM | OVCAR-5 > 100 µM | OVCAR-8 > 100 µM | RXF 393 > 100 µM | SF-295 > 100 µM | SF-539 > 100 µM | SK-MEL-2 > 100 µM | SN12C > 100 µM | TK-10 > 100 µM | UACC-62 > 100 µM

COc1cc(C2S/C(=C/c3ccccc3)C(=O)N2c2cccc([N+](=O)[O-])c2)cc(OC)c1OC (stereo unspecified)
inactive: 786-0 51.4 µM | BT-549 > 100 µM | EKVX 50 µM | M14 72.1 µM | MDA-MB-435 17.5 µM | Malme-3M > 100 µM | NCI/ADR-RES 42.2 µM | OVCAR-5 > 100 µM | OVCAR-8 > 100 µM | SF-295 50.1 µM | SK-MEL-2 15.9 µM | SN12C > 100 µM | SR 46.6 µM | TK-10 > 100 µM | UACC-62 65.9 µM
